Source: PMC10225205 (Cancer Medicine, 2023)
Entries after “also recorded” stand apart in the source; their conditions may differ. Like-named read-outs stand apart in the source and are kept apart here.

How the values were obtained:
[1] = tested on: refractory advanced malignancies; conditions: cited from earlier work
[2] = clinical; conditions: human, in vivo; for AUC: AUCss,0-24h; for Vd/F: Vz/F; for Tmax: median; for half-life: t½
Protocol: Postdose samples were collected at 0.5, 1, 2, 4, 6, and 8 h on Day 1, and at 1 h on Day 14 of Cycle 1. For patients in the CD regimen, a postdose sample at 6 h on Day 14 was also collected.
Pharmacodynamic data were presented using summary statistics.

[3] = c1-2 9 mg ID n=3, c3-4 13.5 mg ID n=23, c5-6 18 mg ID n=5, c7-8 ID subtotal n=31, c9-10 13.5 mg CD n=13, c11-12 total n=44, odd c all grades, even c Grade ≥3

For `CCN1C(=O)N(c2c(F)c(OC)cc(OC)c2F)Cc2cnc3[nH]c(CN4CCOCC4)cc3c21` [Pemigatinib], the Median progression-free survival ([1]; FGFR fusions or rearrangements, 95% CI 2.8–10.0) is listed as 5.7 months, the Objective response rate ([1]; FGFR fusions or rearrangements, 95% CI 8.7–49.1) is listed as 25.0% and the Partial responses ([1]; across tumor types) is listed as 12 n. The Objective response rate ([1]; all patients, 95% CI 4.9–15.8) was 9.4%, the “Median duration of response” value ([1]; all responders, 95% CI 3.3–14.5) was 7.3 months and the “Maximum tolerated dose (MTD)” value (9-18 mg QD) was “not identified; also recorded: not reached”. For the same molecule, the “Clinically notable TEAE: Eyelash changes (trichiasis)” value [3] was 2 (15.4) n (%), the “TEAE: ALT increased” value [3] was 6 (13.6) n (%) and the “TEAE: AST increased” value [3] was 2 (15.4) n (%). For the same molecule, the “TEAE: Blood alkaline phosphatase increased” value [3] was 2 (15.4) n (%), the “TEAE: Blood creatinine increased” value [3] was 6 (13.6) n (%) and the “TEAE: Conjunctivitis” value [3] was 2 (15.4) n (%). The “TEAE: Decreased appetite” value [3] was 2 (15.4) n (%), the “TEAE: Dry skin” value [3] was 2 (15.4) n (%) and the “TEAE: Keratitis” value [3] was 2 (15.4) n (%). For the same molecule, the “TEAE: Malaise” value [3] was 6 (13.6) n (%), the “TEAE: Nail discoloration” value [3] was 2 (15.4) n (%) and the “TEAE: Paronychia” value [3] was 6 (13.6) n (%). The “TEAE: Punctate keratitis” value [3] was 2 (15.4) n (%), the “TEAE: Trichiasis” value [3] was 2 (15.4) n (%) and the “TEAE: Vomiting” value [3] was 6 (13.6) n (%). The Chorioretinopathy (human, in vivo) was 2.3%, the “Clinically notable TEAE: serous retinal detachment (category)” value (human, in vivo) was 18.2% and the “Clinically notable ocular TEAE: dry eye (category)” value (human, in vivo) was 25%. For the same molecule, the “Dose interruptions due to clinically notable TEAEs” value (human, in vivo) was 22.7%, the “Dose reductions due to clinically notable TEAEs” value (human, in vivo) was 6.8% and the “Dry eye (term)” value (human, in vivo) was 6.8%. The “Eyelash changes (trichiasis)” value (human, in vivo) was 9.1%, the “Hyperphosphatemia leading to dose reduction” value (human, in vivo) was 2.3% and the Hypophosphatemia (human, in vivo) was 4.5%. For the same molecule, the Keratitis (human, in vivo) was 11.4%, the Lacrimation increased (human, in vivo) was 2.3% and the Nail discoloration (human, in vivo) was 6.8%. For the same molecule, the Nail ridging (human, in vivo) was 2.3%, the “Nail toxicity TEAEs” value (human, in vivo) was 31.8 and the Oncholysis (human, in vivo) was 4.5%. The Onychomadesis (human, in vivo) was 11.4%, the Paronychia (human, in vivo) was 13.6% and the “Patients with at least 1 treatment-related TEAE” value (human, in vivo) was 97.7%. For the same molecule, the “Patients with treatment-related TEAEs of Grade ≥3” value (human, in vivo) was 15.9%, the Punctate keratitis (human, in vivo) was 6.8% and the “Serous retinal detachment (term)” value (human, in vivo) was 11.4%. The “Severity of hyperphosphatemia events” value (human, in vivo) was “Grades 1 or 2”, the Subretinal fluid (human, in vivo) was 4.5% and the “Treatment-related Grade ≥3 TEAE, each of anemia, punctate keratitis, diarrhea, stomatitis, ALT increased, AST increased, decreased appetite, hematuria” value (human, in vivo) was 2.3%. The “Treatment-related alanine aminotransferase increased, Grade ≥3” value (human, in vivo) was 1 (2.3) n (%), the “Treatment-related aspartate aminotransferase increased, Grade ≥3” value (human, in vivo) was 1 (2.3) n (%) and the “Treatment-related decreased appetite, Grade ≥3” value (human, in vivo) was 1 (2.3) n (%). The “Treatment-related diarrhea, Grade ≥3” value (human, in vivo) was 1 (2.3) n (%), the “Treatment-related stomatitis, Grade ≥3” value (human, in vivo) was 1 (2.3) n (%) and the Vision blurred (human, in vivo) was 4.5%. The “Recommended phase 2 dose (RP2D)” value (human, in vivo, 21 days) was 13.5 mg, the “Discontinuation due to hyperphosphatemia” value (in vivo) was “No patients” and the “Dose-limiting toxicities (DLTs)” value (in vivo) was “No DLTs”. For the same molecule, the “Patients with any TEAE” value (in vivo) was “all enrolled patients”, the “TEAE with a fatal outcome” value (overall, considered unrelated to pemigatinib) was 6.8% and the AUC(0-t) ([2]; 9 mg, AUC0-24h, geometric mean (CV%)) was 1.12 µM·h. For the same molecule, the AUC(0-t) ([2]; 9 mg, AUC0-24h, mean ± SD) was 1.13 ± 0.133 µM·h, the AUC(0-t) ([2]; 9 mg, AUClast, geometric mean (CV%)) was 1.12 µM·h and the AUC(0-t) ([2]; 9 mg, AUClast, mean ± SD) was 1.12 ± 0.125 µM·h. For the same molecule, the AUC ([2]; 9 mg, geometric mean (CV%)) was 2.05 µM·h, the AUC ([2]; 9 mg, mean ± SD) was 2.54 ± 2.1 µM·h and the Cmax ([2]; 9 mg, Cmax, geometric mean (CV%)) was 110 nM. The Cmax ([2]; 9 mg, Cmax, mean ± SD) was 114 ± 35.3 nM, the Cmax ([2]; 9 mg, Cmax,ss, geometric mean (CV%)) was 127 nM and the Cmax ([2]; 9 mg, Cmax,ss, mean ± SD) was 155 ± 117 nM. For the same molecule, the Vd/F ([2]; 9 mg, geometric mean (CV%)) was 209 L, the Vd/F ([2]; 9 mg, mean ± SD) was 224 ± 104 L and the Tmax ([2]; 9 mg) was 1.9 h. For the same molecule, the half-life ([2]; 9 mg, geometric mean (CV%)) was 16.1 h, the half-life ([2]; 9 mg, mean ± SD) was 17.1 ± 7.44 h and the AUC(0-t) ([2]; 18 mg, AUC0-24h, geometric mean (CV%)) was 3.31 µM·h. For the same molecule, the AUC(0-t) ([2]; 18 mg, AUC0-24h, mean ± SD) was 3.45 ± 1.02 µM·h, the AUC(0-t) ([2]; 18 mg, AUClast, geometric mean (CV%)) was 3.24 µM·h and the AUC(0-t) ([2]; 18 mg, AUClast, mean ± SD) was 3.38 ± 1.01 µM·h. It also gave an AUC ([2]; 18 mg, geometric mean (CV%)) of 6.56 µM·h, an AUC ([2]; 18 mg, mean ± SD) of 6.95 ± 2.78 µM·h and a Cmax ([2]; 18 mg, Cmax, geometric mean (CV%)) of 344 nM. It also gave a Cmax ([2]; 18 mg, Cmax, mean ± SD) of 431 ± 272 nM, a Cmax ([2]; 18 mg, Cmax,ss, geometric mean (CV%)) of 385 nM and a Cmax ([2]; 18 mg, Cmax,ss, mean ± SD) of 450 ± 285 nM. The Vd/F ([2]; 18 mg, geometric mean (CV%)) was 154 L, the Vd/F ([2]; 18 mg, mean ± SD) was 205 ± 188 L and the Tmax ([2]; 18 mg) was 1.02 h. The half-life ([2]; 18 mg, geometric mean (CV%)) was 18.9 h and the half-life ([2]; 18 mg, mean ± SD) was 20.7 ± 11.2 h.
